Experimental data from US8563609B2, “Nitro fatty acids - neuroprotection and/or inhibition of cognitive decline” (Nitromega Corp., priority 2010, dated 2013).

Key:
[1] = 900 mgs per day oral, six months; cited from earlier work
[2] = tested on: Abeta-mediated changes in membrane trafficking; assay: exocytosis (formazan membrane trafficking) assay with Abeta oligomers in mature primary neuronal cultures; format: cell-based, rat; conditions: for amyloid beta (Abeta) in intracellular vesicles (figure legend): exocytosis assay, mature primary neuronal cultures grown for 3 weeks in vitro
Description: Abeta oligomer preparations: Human amyloid peptide 1-42 was obtained from a variety of commercial sources, with lot-choice contingent upon quality control analysis. Abeta 1-42 oligomers made according to published methods or isolated from human brain tissue served as positive controls. Toxicity was monitored in each image-based assay via quantification of nuclear morphology visualized with the DNA binding dye DAPI. Nuclei that were fragmented were considered to be in late stage apoptosis. Peptide lots producing unusual peptide size ranges or significant toxicity at standard concentrations on neurons were rejected.
Image Processing: Images are captured and analyzed with the Cellomics VTI automated microscope platform. For statistical analysis, a Tukey-Kramer pair-wise comparison with unequal variance is used.
A primary neuron-based functional screening assay to detect small molecule Abeta oligomer blockers: Primary rat neurons grown for at least 3 weeks in vitro were chosen as the basis for this screening assay. […] More complex systems such as acute or organotypic brain slices are very useful but not amenable to high throughput screening. […] For this reason, primary neuronal cultures were chosen because of their ability to be used in high throughput screens and fidelity to what occurs in vivo.
Measuring membrane trafficking rate changes induced by oligomers via formazan morphological shifts has been used in cell lines to discover Abeta oligomer-blocking drugs.
Yellow tetrazolium salts are endocytosed by cells and reduced to insoluble purple formazan in the endosomal pathway. The level of purple formazan is a reflection of the number of actively metabolizing cells in culture, and reduction in the amount of formazan was taken as a measure of cell death or metabolic toxicity in culture as well as an indicator of membrane trafficking
The exocytosis assay was adapted for use with mature primary neuronal cultures grown for 3 weeks in vitro.

[3] = tested on: motor neurons; assay: motor neuron astrocyte coculture, in vitro model of ALS (SOD G93A astrocytes); format: cell-based, mice
Protocol: Recent studies have shown that nitro-arachidonic acid can have protective effects compared with native arachidonic acid in an in vitro model of ALS. This model is based on astrocyte-induced motoneuron toxicity induced by a mutation in CuZn SOD (SOD1).
Briefly, motor neuron astrocytes cocultures were made.
FIG. 2 illustrates the results of these experiments. Native arachidonic acid (AA) at 3 μM and 5 μM had no effect on the motor neuron survival compared with control.

[4] = primary neuronal cultures grown for 3 weeks in vitro, Abeta oligomers

CC/C=C\C/C=C\C/C=C\C/C=C\C/C=C\C/C=C\CCC(=O)O [DHA, docosahexaenoic acid]
tolerability [1]: well-tolerated

C[C@]12N[C@H](Cc3ccccc31)c1ccccc12 [MK-801]
block of Abeta oligomer effects on membrane trafficking (active / not active) [2, 4]: none were active

CCCCC/C=C\C/C=C\C/C=C\C/C=C\CCCC(=O)O [arachidonic acid]
motor neuron survival compared with control / mutant astrocyte induced motor neuron death ([3]; 3 μM): no effect | motor neuron survival compared with control / mutant astrocyte induced motor neuron death ([3]; 5 μM): no effect

C[N+](C)(C)CCCCCC[N+](C)(C)C [hexamethonium bromide]
block of Abeta oligomer effects on membrane trafficking (active / not active) [2, 4]: none were active

CCCCCCCC/C=C\CCCCCCCC(=O)O [oleic acid]
EC50 ([2]; Rattus norvegicus, 504 h, primary neuronal cultures grown for 3 weeks in vitro, Abeta oligomers, read-out: EC50, inhibition of oligomer effects on membrane trafficking): 2080 nM | amyloid beta (Abeta) in intracellular vesicles (figure legend) [2]: dose-dependent decrease

O[C@H]1[C@H](O)[C@@H](O)[C@H](O)[C@@H](O)[C@@H]1O [scyllo-inositol]
block of Abeta oligomer effects on membrane trafficking (active / not active) [2, 4]: none were active

Nitro-oleic acid
amyloid beta (Abeta) in intracellular vesicles (figure legend) [2]: dose-dependent decrease | block of Abeta oligomer effects on membrane trafficking (active / not active) [2, 4]: little statistically relevant effect on membrane trafficking

nitro-arachidonic acid
motor neuron survival compared with control / mutant astrocyte induced motor neuron death ([3]; 3 μM): inhibited mutant astrocyte induced motor neuron death | motor neuron survival compared with control / mutant astrocyte induced motor neuron death ([3]; 5 μM): inhibited mutant astrocyte induced motor neuron death | motorneuron death caused by co-culture with astrocytes containing a mutation in SOD1 (SOD G93A) ([3]; incubated for 24 hours with wild type motor neurons): limited motorneuron death
